Structures are written as SMILES. Where a name gives a salt, the structure may show the parent alone. Read-outs that look alike come from different tables or passages of the source.

Assay [1] deals with influenza transcription (flu APR8 virus) (Influenza A virus, UniProt P03433). The assay can be described thus: biochemical. Also noted: species or system influenza virus A/PR/8/34 (H1N1).
Assay [2] concerns the target VSV transcription (Vesicular stomatitis Indiana virus, UniProt P03523). The assay can be described thus: biochemical.
For assay [3], the target named is T7 Phage RNA Polymerase (Escherichia phage T7, UniProt P00573). Nature of the assay: T7 Phage RNA Polymerase assay. Format: biochemical.
In assay [4] the target is T1, Hela RNA Polymerase II (Homo sapiens, UniProt P24928).
T1 construct: Hela RNA polymerase II in Hela extract; endogenous in cells; host or cells: HeLa extract
Nature of the assay: Hela RNA polymerase II run-off transcription. In kind it is biochemical. The protocol:
d. Hela RNA polymerase II-Compounds or DMSO were incubated in a run-off transcription assay using Hela RNA polymerase II in Hela extract with 50 ng/μl of pD5 template (Adeno major late promoter) in a final reaction containing 500 μM A,C,GTP and 0.5 μM [32]P-UTP in 15 mM Tris-HCl, pH 7.9/7.0 mM MGCl2 /32 mM (NH4)2 SO4 /0.2 mM EDTA/1.3 mM DTT for 60 min at 30° C. Following ethanol precipitation, reaction products were electrophoresed on 8% polyacrylamide gels containing 7M urea.

Assay [5] deals with T2, Hela DNA Polymerase-a (Homo sapiens, UniProt P09884).
T2 construct: Hela cell DNA polymerase α; endogenous in cells; host or cells: HeLa cells
T2 sequence (P09884 1-1462): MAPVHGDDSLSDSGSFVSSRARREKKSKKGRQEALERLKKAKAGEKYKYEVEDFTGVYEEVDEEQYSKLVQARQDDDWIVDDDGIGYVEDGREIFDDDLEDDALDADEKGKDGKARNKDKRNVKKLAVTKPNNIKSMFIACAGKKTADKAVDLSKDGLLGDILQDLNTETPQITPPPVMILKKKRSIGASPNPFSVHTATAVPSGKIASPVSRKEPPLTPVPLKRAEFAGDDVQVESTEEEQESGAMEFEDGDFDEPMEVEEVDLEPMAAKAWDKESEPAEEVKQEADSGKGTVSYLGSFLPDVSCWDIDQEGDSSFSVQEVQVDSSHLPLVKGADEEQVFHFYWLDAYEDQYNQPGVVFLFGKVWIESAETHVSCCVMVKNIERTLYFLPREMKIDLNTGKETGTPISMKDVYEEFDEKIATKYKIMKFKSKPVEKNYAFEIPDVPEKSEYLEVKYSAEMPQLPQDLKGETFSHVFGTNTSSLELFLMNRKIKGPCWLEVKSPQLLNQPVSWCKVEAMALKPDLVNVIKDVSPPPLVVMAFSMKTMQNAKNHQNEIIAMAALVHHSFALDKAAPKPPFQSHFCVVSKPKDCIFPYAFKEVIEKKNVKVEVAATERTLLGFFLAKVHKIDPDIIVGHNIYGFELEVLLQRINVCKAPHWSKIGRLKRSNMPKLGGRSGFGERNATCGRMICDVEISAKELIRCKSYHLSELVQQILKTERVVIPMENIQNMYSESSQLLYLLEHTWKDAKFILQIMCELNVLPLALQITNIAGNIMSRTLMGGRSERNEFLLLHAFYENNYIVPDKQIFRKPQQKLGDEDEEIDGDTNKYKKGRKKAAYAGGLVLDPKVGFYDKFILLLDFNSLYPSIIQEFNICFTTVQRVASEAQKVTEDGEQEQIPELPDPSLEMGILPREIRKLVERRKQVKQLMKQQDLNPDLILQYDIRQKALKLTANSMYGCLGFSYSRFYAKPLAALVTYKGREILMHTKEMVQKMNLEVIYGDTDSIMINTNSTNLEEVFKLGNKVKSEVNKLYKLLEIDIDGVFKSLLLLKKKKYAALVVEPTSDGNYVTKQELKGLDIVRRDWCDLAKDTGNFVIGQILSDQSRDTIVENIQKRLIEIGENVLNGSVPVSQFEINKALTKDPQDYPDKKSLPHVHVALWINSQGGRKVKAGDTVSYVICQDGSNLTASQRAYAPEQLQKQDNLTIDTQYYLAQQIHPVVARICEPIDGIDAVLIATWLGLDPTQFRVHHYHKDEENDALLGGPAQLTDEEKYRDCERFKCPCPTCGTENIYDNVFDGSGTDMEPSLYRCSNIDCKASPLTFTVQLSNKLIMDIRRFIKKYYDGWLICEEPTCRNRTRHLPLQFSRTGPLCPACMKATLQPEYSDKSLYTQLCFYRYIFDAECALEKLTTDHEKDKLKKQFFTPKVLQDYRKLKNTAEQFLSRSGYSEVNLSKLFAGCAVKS
The assay can be described thus: Hela DNA Polymerase-a assay. Format: biochemical.

The target in assay [6] is HIV RNase H (Human immunodeficiency virus type 1 group M subtype B, UniProt P04585). The assay can be described thus: HIV RNase H assay. Format: biochemical.
Assay [7] concerns the target EcoRI Restriction Endonuclease (Escherichia coli, UniProt P00642). Nature of the assay: EcoRI Restriction Endonuclease assay. Format: biochemical.
Assay [8] addresses Influenza Endonuclease (Influenza A virus, UniProt P03433). The assay can be described thus: biochemical.
Assay [9] has as its target influenza virus transcription (Influenza A virus (A/Japan/305-/1957(H2N2)), UniProt Q1K9Q4). In kind it is biochemical, influenza virus A/Japan/305/57 (H2N2). As to conditions: read-out: IC50, inhibition of influenza virus transcription; virus strain A/Japan/305/57 (H2N2); primed with cap1 ALMV.
Assay [10] deals with influenza virus transcription (Influenza A virus (A/Port Chalmers/1/1973(H3N2)), UniProt Q1PUD2). Format: biochemical, influenza virus A/Port Chalmers/1/73 (H3N2). As to conditions: read-out: IC50, inhibition of influenza virus transcription.
Assay [11] has as its target influenza virus transcription (Influenza A virus (A/nt/60/1968(H3N2)), UniProt P03434). In kind it is biochemical, influenza virus A/Hong Kong/8/68 (H3N2). The settings on record: read-out: IC50, inhibition of influenza virus transcription; virus strain A/Hong Kong/8/68 (H3N2); primed with cap1 ALMV.
For assay [12], the system named is influenza virus transcription. Nature of the assay: in vitro transcription primed with cap1 ALMV, B/Hong Kong/5/72. Format: biochemical, influenza virus B/Hong Kong/5/72. The settings on record: virus strain B/Hong Kong/5/72, read-out: IC50, inhibition of influenza virus transcription.
Assay [13] concerns the target cap-independent influenza transcription primed with ApG (Influenza A virus, UniProt P03431). Nature of the assay: biochemical.
In assay [14] the target is RNase A (Bos taurus, UniProt P61823). Nature of the assay: RNase A assay.
Assay [15] addresses RNase U2 (Ustilago sphaerogena, UniProt P00654). Nature of the assay: RNase U2 assay.
Assay [16] has as its target RNase T1 (Aspergillus oryzae, UniProt P00651). The assay can be described thus: RNase T1 assay.

As for `O=C(O)C(=O)CC(=O)C1(Cc2ccc(Cl)cc2)CCCN(Cc2ccccc2)C1` (centres unmarked) [Compound A, 4-[N-benzyl-3-(4-chlorobenzyl)piperidin-3-yl]2,4-dioxobutanoic acid hydrochloride], the IC50 – broadly, the concentration at which inhibition is half-maximal – in assay [1] is 1.1 µM; in assay [1] (read-out: IC50, inhibition of influenza virus transcription), 1.1 µM; in assay [2], above 500 µM; in assay [3], above 100 µM; in assay [4] it was above 500 µM; in [5], above 100 µM. The IC50 is 100 µM in assay [6]; above 500 µM in assay [7]; 1.8 µM in assay [8]; 0.25 µM in assay [9]; 0.5 µM in [10]; 0.62 µM in [11]. The IC50 in assay [12] is 0.85 µM; in [13] it was above 1000 µM; in assay [14], above 200 µM; in [15] it was above 200 µM; in assay [16], above 200 µM.
